Test results from article PMC12040969, “Design, synthesis, in silico studies, and apoptotic antiproliferative activity of novel thiazole-2-acetamide derivatives as tubulin polymerization inhibitors” (Frontiers in Chemistry, 2025).
“And” between values parts separate entries of the source, which are not always exact repeats. Identical values can stand only once.

Columns and labels:
[1] = Cell viability assay (MTT), normal cells; format: cell-based; conditions: human, MCF-10A normal mammary gland epithelial cells, four-day incubation
[2] = tested on: Caspase-3 in MDAMB-231 cancer cell line; test: Caspase-3 activation assay; format: cell-based, human; conditions: MDAMB-231 cells; for Caspase-3 Fold change: relative to untreated control
Text: (§1) […]. Supplementary Appendix A provides more information.

[3] = tested on: Caspase-9 in MDAMB-231 cancer cell line; test: Caspase-9 activation assay; format: cell-based, human; conditions: MDAMB-231 cells
Procedure: […]. Compound 10o was the least efficient derivative as caspase-9 activators (0.90 ng/mL).
as §1

[4] = tested on: Bax in MDAMB-231 cancer cell line; test: Bax level assay; format: cell-based, human; conditions: MDAMB-231 cells
Text: as §1

[5] = tested on: Bcl-2 in MDAMB-231 cancer cell line; test: Bcl-2 level assay; format: cell-based, human; conditions: MDAMB-231 cells
Text: as §1

prostatic - PC-3 = test: Antiproliferative assay (MTT) PC-3
breast - MCF-7 = test: Antiproliferative assay (MTT) MCF-7
colon - HCT-116 = test: Antiproliferative assay (MTT) HCT-116
- MDAMB-231 = test: Antiproliferative assay (MTT) MDAMB-231
pancreatic - MDAMB-231 = test: Antiproliferative assay (MTT) MDAMB-231; conditions: read-out: Antiproliferative activity IC50 ± SEM (µM) MDAMB-231; MDAMB-231, MTT
[6] = tested on: four human cancer cell lines (HCT-116, PC-3, MCF-7, MDAMB-231); test: Antiproliferative assay, mean of four cell lines (GI50); conditions: Homo sapiens, read-out: GI50 (average IC50)
tubulin = test: Tubulin polymerization inhibition assay (Cytoskeleton kit);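 for all read-outs here: Cell-free tubulin polymerization read by fluorescent reporter enhancement over a 30 min reaction, with the compound-free kit control taken as 100% activity and inhibition relative to it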; conditions: for Tub. enzyme inhibition assay %inhibition: 30 min, codes 522-537 run; for Tub. enzyme inhibition assay K. Activity: control = 120, codes 522-537 run

SMILES: Cc1ccc(/C=C/C(=O)c2sc(SCC(=O)Nc3nccs3)nc2C)cc1 [Compound 13d, (E)-2-((4-methyl-5-(3-(p-tolyl)acryloyl)thiazol-2-yl)thio)-N-(thiazol-2-yl)acetamide]
- viability at 96 h, 50 µM [1]: 90%
- Caspase-3 Conc [2]: 690 ± 5 pg/mL
- Caspase-3 Fold change [2]: 11 fold
- Caspase-3 Fold change ([2]; listed as 13g): ~10 fold
- Caspase-9 Conc [3]: 1.50 ng/mL and 1.50 ± 0.10 ng/mL
- Caspase-9 Fold change ([3]; relative to untreated control): 15 fold
- Bax Conc [4]: 320 pg/mL and 320 ± 8 pg/mL
- Bax Fold change ([4]; relative to untreated control): 40 fold
- Bcl-2 Conc [5]: 0.80 ng/mL
- Bcl-2 Fold reduction ([5]; relative to untreated control): 6 fold
- Average of Relative viability of cells (%) (prostatic - PC-3; PC-3, 1.56 µM): 97.1%
- Average of Relative viability of cells (%) (prostatic - PC-3; PC-3, 3.125 µM): 83.3%
- Average of Relative viability of cells (%) (prostatic - PC-3; PC-3, 6.25 µM): 57.8%
- Average of Relative viability of cells (%) (prostatic - PC-3; PC-3, 12.5 µM): 35.6%
- Average of Relative viability of cells (%) (prostatic - PC-3; PC-3, 25 µM): 20.5%
- Average of Relative viability of cells (%) (prostatic - PC-3; PC-3, 50 µM): 19.4%
- Average of Relative viability of cells (%) (prostatic - PC-3; PC-3, 100 µM): 7.6%
- IC50 (prostatic - PC-3; read-out: Antiproliferative activity IC50 ± SEM (µM) PC-3, PC-3, MTT): 9 ± 0.8 µM
- Average of Relative viability of cells (%) (breast - MCF-7; MCF-7, 1.56 µM): 88.6%
- Average of Relative viability of cells (%) (breast - MCF-7; MCF-7, 3.125 µM): 71.2%
- Average of Relative viability of cells (%) (breast - MCF-7; MCF-7, 6.25 µM): 45.2%
- Average of Relative viability of cells (%) (breast - MCF-7; MCF-7, 12.5 µM): 32.4%
- Average of Relative viability of cells (%) (breast - MCF-7; MCF-7, 25 µM): 24.5%
- Average of Relative viability of cells (%) (breast - MCF-7; MCF-7, 50 µM): 17.1%
- Average of Relative viability of cells (%) (breast - MCF-7; MCF-7, 100 µM): 8.3%
- IC50 (breast - MCF-7; read-out: Antiproliferative activity IC50 ± SEM (µM) MCF-7, MCF-7, MTT): 7 ± 0.4 µM
- Average of Relative viability of cells (%) (colon - HCT-116; HCT-116, 1.56 µM): 90.6%
- Average of Relative viability of cells (%) (colon - HCT-116; HCT-116, 3.125 µM): 69.8%
- Average of Relative viability of cells (%) (colon - HCT-116; HCT-116, 6.25 µM): 63.9%
- Average of Relative viability of cells (%) (colon - HCT-116; HCT-116, 12.5 µM): 32.7%
- Average of Relative viability of cells (%) (colon - HCT-116; HCT-116, 25 µM): 26.5%
- Average of Relative viability of cells (%) (colon - HCT-116; HCT-116, 50 µM): 17.4%
- Average of Relative viability of cells (%) (colon - HCT-116; HCT-116, 100 µM): 9.2%
- IC50 (colon - HCT-116; read-out: Antiproliferative activity IC50 ± SEM (µM) HCT-116, HCT-116, MTT): 9 ± 0.9 µM
- Average of Relative viability of cells (%) (- MDAMB-231; MDAMB-231, 1.56 µM): 71.2%
- Average of Relative viability of cells (%) (- MDAMB-231; MDAMB-231, 3.125 µM): 57.9%
- Average of Relative viability of cells (%) (- MDAMB-231; MDAMB-231, 6.25 µM): 45.6%
- Average of Relative viability of cells (%) (- MDAMB-231; MDAMB-231, 12.5 µM): 35.2%
- Average of Relative viability of cells (%) (- MDAMB-231; MDAMB-231, 25 µM): 15.6%
- Average of Relative viability of cells (%) (- MDAMB-231; MDAMB-231, 50 µM): 11.3%
- Average of Relative viability of cells (%) (- MDAMB-231; MDAMB-231, 100 µM): 7.5%
- IC50 (pancreatic - MDAMB-231): 5 ± 0.3 µM
- IC50 [6]: 8 µM
- Tub. enzyme inhibition assay %inhibition (tubulin; conc 0.01 (unit not given)): 6.76%
- Tub. enzyme inhibition assay K. Activity (tubulin; conc 0.01 (unit not given)): 111.89
- Tub. enzyme inhibition assay %inhibition (tubulin; conc 0.1 (unit not given)): 21%
- Tub. enzyme inhibition assay K. Activity (tubulin; conc 0.1 (unit not given)): 94.779
- Tub. enzyme inhibition assay %inhibition (tubulin; conc 1 (unit not given)): 47.4%
- Tub. enzyme inhibition assay K. Activity (tubulin; conc 1 (unit not given)): 63.07
- Tub. enzyme inhibition assay %inhibition (tubulin; conc 10 (unit not given)): 68.5%
- Tub. enzyme inhibition assay K. Activity (tubulin; conc 10 (unit not given)): 37.815
- Tub. enzyme inhibition assay %inhibition (tubulin; conc 100 (unit not given)): 87%
- Tub. enzyme inhibition assay K. Activity (tubulin; conc 100 (unit not given)): 15.546
- IC50 (tubulin; read-out: Tubulin inhibition IC50 ± SEM, triplicate for each tested concentration): 3.68 ± 0.14 µM
- Tub. (IC50) IC50±SD (tubulin; supplement raw data, lab codes): 1.53 ± 0.06 µg/mL
